Results reported in publication PMC2806602 (The Journal of neuroscience : the official journal of the …, 2009).
Where a chain is given by its changes, count along the chain named.

Legend:
Format in all cases: cell-based
GluRδ2^Lc D535C+D782C = biological target: T1, GluRδ2^Lc D535C+D782C (Rattus norvegicus, UniProt Q63226, A654T/D535C/D782C); test: Two-electrode voltage-clamp recordings in Xenopus oocytes, GluRδ2^Lc D535C+D782C
T1 sequence (Q63226 24-1007 D535C/A654T/D782C): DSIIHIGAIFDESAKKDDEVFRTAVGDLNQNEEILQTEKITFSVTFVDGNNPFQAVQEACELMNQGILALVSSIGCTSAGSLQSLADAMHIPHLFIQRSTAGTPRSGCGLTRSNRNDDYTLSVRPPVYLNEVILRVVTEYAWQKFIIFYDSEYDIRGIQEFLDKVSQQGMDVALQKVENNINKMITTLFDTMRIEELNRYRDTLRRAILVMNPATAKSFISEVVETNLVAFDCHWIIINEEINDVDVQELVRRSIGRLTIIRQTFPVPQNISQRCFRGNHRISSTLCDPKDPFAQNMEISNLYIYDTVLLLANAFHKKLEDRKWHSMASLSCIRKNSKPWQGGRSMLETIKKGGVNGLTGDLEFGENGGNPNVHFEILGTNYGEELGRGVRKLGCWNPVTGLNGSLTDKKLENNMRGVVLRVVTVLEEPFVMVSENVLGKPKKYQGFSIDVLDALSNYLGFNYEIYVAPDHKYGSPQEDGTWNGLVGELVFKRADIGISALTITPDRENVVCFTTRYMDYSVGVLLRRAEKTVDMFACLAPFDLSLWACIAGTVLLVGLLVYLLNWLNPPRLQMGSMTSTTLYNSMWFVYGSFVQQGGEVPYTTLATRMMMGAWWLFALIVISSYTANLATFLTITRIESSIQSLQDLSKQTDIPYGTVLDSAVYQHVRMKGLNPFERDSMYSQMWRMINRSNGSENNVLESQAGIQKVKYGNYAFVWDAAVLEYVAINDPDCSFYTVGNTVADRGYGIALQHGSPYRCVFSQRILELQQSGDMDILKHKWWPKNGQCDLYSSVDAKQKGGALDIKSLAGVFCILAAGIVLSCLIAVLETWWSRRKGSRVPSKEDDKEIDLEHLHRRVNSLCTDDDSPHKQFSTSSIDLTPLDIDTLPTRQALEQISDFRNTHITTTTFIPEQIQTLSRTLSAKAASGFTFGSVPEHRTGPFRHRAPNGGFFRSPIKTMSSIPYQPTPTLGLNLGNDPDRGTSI

GluRδ2^Lc E531A+D535A = biological target: T2, GluRδ2^Lc E531A+D535A (Rattus norvegicus, UniProt Q63226, A654T/D535A/E531A); test: Two-electrode voltage-clamp recordings in Xenopus oocytes, GluRδ2^Lc E531A+D535A
T2 sequence (Q63226 24-1007 E531A/D535A/A654T): T1 sequence (Q63226 24-1007 D535C/A654T/D782C) with E508A, C512A, C759D

GluRδ2^Lc E531A = biological target: T3, GluRδ2^Lc E531A (Rattus norvegicus, UniProt Q63226, A654T/E531A); test: Two-electrode voltage-clamp recordings in Xenopus oocytes, GluRδ2^Lc E531A
T3 sequence (Q63226 24-1007 E531A/A654T): T1 sequence (Q63226 24-1007 D535C/A654T/D782C) with E508A, C512D, C759D

Row | SMILES | Ca^2+ potentiation (relative to baseline) (GluRδ2^Lc D535C+D782C; 3 mM Ca^2+, ± SEM) [fold] | Ca^2+ potentiation (relative to baseline) (GluRδ2^Lc E531A+D535A; 3 mM Ca^2+, ± SEM) [fold] | Ca^2+ potentiation (relative to baseline) (GluRδ2^Lc E531A; 3 mM Ca^2+, ± SEM) [fold] | D-serine + 0 mM Ca^2+ nH (GluRδ2^Lc D535C+D782C; Hill slope, 0 mM Ca^2+) | D-serine + 3 mM Ca^2+ nH (GluRδ2^Lc D535C+D782C; Hill slope, 3 mM Ca^2+) | D-serine + 0 mM Ca^2+ nH (GluRδ2^Lc E531A+D535A; Hill slope, 0 mM Ca^2+) | D-serine + 3 mM Ca^2+ nH (GluRδ2^Lc E531A+D535A; Hill slope, 3 mM Ca^2+) | D-serine + 0 mM Ca^2+ nH (GluRδ2^Lc E531A; Hill slope, 0 mM Ca^2+) | D-serine + 3 mM Ca^2+ nH (GluRδ2^Lc E531A; Hill slope, 3 mM Ca^2+)
1 | [Ca+2] [Ca^2+, calcium] | 0.9 ± 0.01 | 1.0 ± 0.04 | 1.6 ± 0.08 | – | – | – | – | – | –
2 | N[C@H](CO)C(=O)O [D-serine] | – | – | – | 0.9 | 1.0 | 2.2 | 2.2 | 1.1 | 1.9
